Test results taken from patent publication US9006191B2, “Silencing of polo-like kinase expression using interfering RNA” (Protiva Biotherapeutics, Inc., priority 2007, dated 2015).
“And” between values parts separate entries of the source, which are not always exact repeats. Identical values can stand only once.

Legend:
[1] = test system: anti-PEG-lipid IgG and IgM antibodies; test: In vivo PEG-lipid antibody induction assay; design: species or system mouse; conditions: CD1 ICR mice, 1:57 SNALP IV at Days 0, 7, 14; plasma Days 7, 14, 21
Protocol: In vivo PEG-lipid antibody induction assays. Animal studies were performed to test for the induction of an antibody response to 2′OMe-modified PLK1424 siRNAs that were encapsulated in a 1:57 SNALP formulation containing the lipid conjugate PEG-cDMA. Six-week-old female CD1 ICR mice were used in this study. […] Mice were then sacrificed on Day 21. The tolerability of the treatment regime was monitored by animal appearance, behavior, and body weight. Anti-PEG-lipid IgG and IgM antibodies in plasma at Days 7, 14, and 21 were measured by ELISA.

IFIT1 mRNA, serum IFNα = test: In vivo immune stimulation assay in Balb/c mice (IFIT1 mRNA, serum IFNα); conditions: SNALP-formulated siRNA IV, 4 h
Protocol: Balb/c mice (n=4 per group) were administered 2.5 mg/kg siRNA or lipid vehicle; serum IFNα (pg/mL) and IFIT1 mRNA (relative to GAPDH) from whole liver lysates were assessed after 4, 8, and 16 h by ELISA and bDNA assay, respectively. […] (b) Serum IFNα and (c) liver IFIT1 mRNA were assessed 4 h after administration (mean+SD, n=4).
SNALP-formulated Luc (unmodified) and the 2′OMe-modified Luc-U/U, PLK1424-2/A, PLK773-1/B, or KSP2263-U/U siRNA were administered at 2 mg/kg i.v. to Balb/C mice. (A) IFIT1 relative to GAPDH mRNA in liver and spleen was assessed at 4 h by bDNA analysis. […] Serum IFNα was assessed at 6 h by ELISA. […] Values represent mean+SD (n=4).
IFIT1 mRNA and serum cytokines were assessed 4-6 h after SNALP administration based on the approximate time of peak response for these markers. In these studies, SNALP-formulated native Luc siRNA (Table 6) was used as a positive control for immune stimulation.
In vivo immune stimulation assays. […] 6-8 week old Balb/C mice were obtained from Harlan and subject to a two week acclimation period prior to use. Mice were administered SNALP formulated siRNA (2 mg/kg) in PBS via standard intravenous injection in the lateral tail vein. Blood was collected by cardiac puncture and processed as plasma for cytokine analysis. Liver and spleen were collected into RNALater (Sigma Co.) for IFIT1 mRNA analysis.
Measurement of IFIT1 mRNA in mouse tissues. Murine liver and spleen were processed for bDNA assay to quantitate IFIT1 mRNA as described above. The IFIT1 probe set was specific to mouse IFIT1 mRNA (positions 4-499 of NM—008331) and the GAPDH probe set was specific to mouse GAPDH mRNA (positions 9-319 of NM—008084). Data is shown as the ratio of IFIT1 relative light units (RLU) to GAPDH RLU.
Cytokine ELISA. All cytokines were quantified using sandwich ELISA kits. These were mouse interferon-α (PBL Biomedical; Piscataway, N.J.) and human and mouse IL-6 (BD Biosciences; San Diego, Calif.).

human PLK-1 mRNA [2] = test: PLK-1 mRNA in Hep3B tumors (QuantiGene bDNA assay); type: in vivo; conditions: hepatic Hep3B tumors, single 2 mg/kg IV, 24 h
Protocol: The objectives of this study were as follows: • 1. To determine the level of mRNA silencing in established Hep3B liver tumors following a single IV administration of PLK1424 SNALP. • 2. To confirm the mechanism of mRNA silencing by detecting specific RNA cleavage products using RACE-PCR. • 3. To confirm induction of tumor cell apoptosis by histopathology.
A comparison of the effect of PEG-cDMA and PEG-cDSA 1:57 SNALPs on PLK-1 mRNA silencing was performed using established intrahepatic Hep3B tumors in scid/beige mice. A single 2 mg/kg dose of PLK-1 SNALP containing either PEG-cDMA or PEG-cDSA was administered intravenously. Liver/tumor samples were collected at 24 and 96 hours after SNALP treatment. Control=2 mg/kg Luc-cDMA SNALP at 24 hours.
Measurement of human PLK-1 and GAPDH mRNA in tumor tissues. […] Human PLK-1 and GAPDH mRNA were measured in tumor lystes by the QuantiGene bDNA assay (Panomics) as per the manufacturer's instructions (Quantigene 1.0 Manual). […] Data were expressed as mean PLK-1:GAPDH ratio+/−SD of individual animals. Tumor burden was assessed by homogenizing the complete liver from tumor bearing mice and measuring the total hGAPDH signal (RLU's) within the liver. Values were expressed as hGAPDH RLU/mg total liver.
Subcutaneous tumor models. […] The extent of PLK-1 mRNA knockdown was determined in the Hep3B tumors about 24 hours after SNALP administration.

IFN-α, IFIT1 mRNA = test: In vivo immune stimulation assay in CD1 ICR mice (plasma IFN-α, IFIT1 mRNA); design: species or system mouse; conditions: 1:57 PEG-cDMA SNALP, 3 mg/kg IV, 4 h
Protocol: In vivo immune stimulation assays. Animal studies were performed to test for the immunostimulatory activity of SNALP containing 2′OMe-modified PLK1424 siRNAs. Six-week-old female CD1 ICR mice were used in this study. […] The tolerability of the treatment regime was monitored by animal appearance and behavior.

human PLK-1 mRNA [3] = test: 5′ RACE-PCR in HT29 cells; type: cell-based; conditions: 10 nM, 24 h
Protocol: (A) HT29 cells were treated with 10 nM SNALP-formulated PLK1424, Luc siRNA or PBS. RNA was isolated 24 hours after transfection and assayed for the specific PLK-1 mRNA cleavage product by 5′-RACE-PCR. (B) Neuro2a cells were treated with SNALP-formulated KSP2263, PLK773 siRNA or PBS. RNA was isolated 24 hours after transfection and assayed for the specific mouse KSP mRNA cleavage product by 5′-RACE-PCR.
The detection of specific RNA cleavage products generated by RISC-mediated hydrolysis of target mRNA is the definitive marker confirming RNAi as the mechanism of gene silencing (39, 40). Activated RISC cleaves target mRNA precisely between the nucleotides complementary to positions 10 and 11 of the siRNA AS strand generating an mRNA cleavage product that is unique to the siRNA sequence. This can be detected in cells using an appropriately designed 5′-rapid amplification of cDNA ends-PCR method (RACE-PCR). We developed RACE-PCR assays to detect the PLK1424-specific cleavage product of human PLK-1 mRNA and the KSP2263-specific cleavage product of mouse KSP mRNA.
5′ RNA Ligase Mediated Rapid Amplification of cDNA ends (5′ RLM RACE).

HepG2 cells = test: HepG2 cell viability assay; type: cell-based, human; conditions: PLK1424 SNALP 0.31-5 nM, 72 h
[4] = SNALP particle size and polydispersity; type: physicochemical
Hep3B cells = conditions: SNALP-formulated siRNA, 72 h
Protocol: Cell Viability Assay: Cell viability of in vitro cell cultures was assessed using the commercial reagent CellTiter-Blue® (Promega Corp.; Madison, Wis.), a resazurin dye that is reduced by metabolically active cells to the fluorogenic product resorufin. Various cancer cell lines were cultured in vitro using standard tissue culture techniques. 48-72 hours after treatment with siRNA formulations and/or chemotherapy drugs, the CellTiter-Blue® reagent was added to the culture to quantify the metabolic activity of the cells, which is a measure of cell viability.
Cell Cultures. The cell lines Hep3B, HepG2, HT29, LS174T, and Neuro2a cells were obtained from the American Type Culture Collection (ATCC; Manassas, Va.) and cultured in the recommended basal media with 10% heat inactivated FBS and 1% penicillin-streptomycin. […] For in vitro siRNA activity assays, cell lines were cultured in 96 well plates in the presence of SNALP formulated siRNA. Cell viability was assessed after 72 h using the resazurin dye CellTiter Blue (Promega Corp).

Substance | IgG / IgM antibody response against PEG-lipid (PEG-cDMA) [1] | IFIT1 mRNA induction in liver and spleen (IFIT1 mRNA, serum IFNα) | tumor hPLK-1 mRNA, % of levels in PBS-treated mice (human PLK-1 mRNA [2]) [%] | IFIT1 induction (QG analysis) (IFN-α, IFIT1 mRNA) | PLK-1 mRNA cleavage product by 5′ RACE-PCR (human PLK-1 mRNA [3]) | cell viability (HepG2 cells) | mean SNALP particle size [4] | cell viability / anti-proliferative activity (Hep3B cells)
PLK1424-2/A: 2′OMe-modified PLK1424 duplex, SEQ ID NO:214/215 (same SEQ IDs as PLK1424 1/3 of Table 11) (chain 1 AGANCACCCNCCUNAAANAUU; chain 2 UAUUUAANGAGGGUGANCUUU; siRNA; 2'-O-methyl modifications at selected positions, key for n not given here) | substantially less immunogenic than SNALP containing the corresponding unmodified PLK1424 siRNA sequence | no measurable IFNα or increase in IFIT1 mRNA in the liver or spleen | 45 | no significant IFIT1 induction above that of empty SNALP | generated the predicted 476 bp 5′ RACE-PCR product | – | – | –
PLK1424: siRNA to human PLK-1, SEQ ID NO:1/2 (UU overhang form 211/212) (chain 1 AGAUCACCCUCCUUAAAUA; chain 2 UAUUUAAGGAGGGUGAUCU; further chemistry not given here) | – | – | – | – | – | potent activity | 83 nm and 72 nm | potent activity
